Data reported in paper PMC10067855, “Sialidases and fucosidases of Akkermansia muciniphila are crucial for growth on mucin and nutrient sharing with mucus-associated gut bacteria” (Nature Communications, 2023).

Experiments:
AmGH33A = biological target: T1, AmGH33A (Akkermansia muciniphila, UniProt B2UPI5); assay: inhibition of 4MU-Neu5Ac hydrolysis, fluorescence; format: biochemical
T1 construct: gene Amuc_0625; mature peptide lacking the signal peptide
T1 sequence (B2UPI5 39-419): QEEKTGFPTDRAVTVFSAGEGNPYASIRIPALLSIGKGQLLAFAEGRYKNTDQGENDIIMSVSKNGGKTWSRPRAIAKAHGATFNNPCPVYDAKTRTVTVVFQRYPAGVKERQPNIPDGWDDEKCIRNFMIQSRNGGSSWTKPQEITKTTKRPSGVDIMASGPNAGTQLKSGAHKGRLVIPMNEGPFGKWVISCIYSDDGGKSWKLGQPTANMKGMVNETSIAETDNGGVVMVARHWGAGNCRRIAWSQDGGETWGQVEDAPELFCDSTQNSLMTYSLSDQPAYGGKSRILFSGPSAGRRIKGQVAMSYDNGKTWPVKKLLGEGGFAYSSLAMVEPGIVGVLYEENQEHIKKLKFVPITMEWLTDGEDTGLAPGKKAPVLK

AmGH181 [1] = biological target: T2, AmGH181 (Akkermansia muciniphila, UniProt B2ULI1); assay: X-ray crystal structure; also inhibition of 4MU-Neu5Ac hydrolysis; format: biochemical; set-up: gene Amuc_1547; mature peptide lacking the signal peptide
T2 sequence (B2ULI1 23-595): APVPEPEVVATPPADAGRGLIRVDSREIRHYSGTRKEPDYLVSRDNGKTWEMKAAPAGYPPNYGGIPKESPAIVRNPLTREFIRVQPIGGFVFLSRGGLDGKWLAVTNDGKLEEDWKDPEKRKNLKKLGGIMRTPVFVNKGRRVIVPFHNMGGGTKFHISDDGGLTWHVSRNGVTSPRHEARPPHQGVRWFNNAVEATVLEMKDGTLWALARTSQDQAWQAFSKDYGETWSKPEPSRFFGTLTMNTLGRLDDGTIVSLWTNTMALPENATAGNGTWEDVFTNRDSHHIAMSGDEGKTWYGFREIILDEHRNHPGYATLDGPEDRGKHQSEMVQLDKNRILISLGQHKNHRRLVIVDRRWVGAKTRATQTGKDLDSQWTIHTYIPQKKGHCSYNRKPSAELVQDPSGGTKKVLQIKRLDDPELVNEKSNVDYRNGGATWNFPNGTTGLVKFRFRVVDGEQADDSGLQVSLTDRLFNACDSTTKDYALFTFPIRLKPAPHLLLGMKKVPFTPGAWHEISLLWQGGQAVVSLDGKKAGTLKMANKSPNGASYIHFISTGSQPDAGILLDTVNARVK
Text: X-ray crystal structure; also inhibition of 4MU-Neu5Ac hydrolysis on AmGH181 | three structures of AmGH181: in ligand free form, bound with the transition-state inhibitor DANA

AmGH33B = biological target: T3, AmGH33B (Akkermansia muciniphila, UniProt B2UN42); assay: inhibition of 4MU-Neu5Ac hydrolysis, fluorescence; format: biochemical
T3 construct: gene Amuc_1835; mature peptide lacking the signal peptide
T3 sequence (B2UN42 19-674): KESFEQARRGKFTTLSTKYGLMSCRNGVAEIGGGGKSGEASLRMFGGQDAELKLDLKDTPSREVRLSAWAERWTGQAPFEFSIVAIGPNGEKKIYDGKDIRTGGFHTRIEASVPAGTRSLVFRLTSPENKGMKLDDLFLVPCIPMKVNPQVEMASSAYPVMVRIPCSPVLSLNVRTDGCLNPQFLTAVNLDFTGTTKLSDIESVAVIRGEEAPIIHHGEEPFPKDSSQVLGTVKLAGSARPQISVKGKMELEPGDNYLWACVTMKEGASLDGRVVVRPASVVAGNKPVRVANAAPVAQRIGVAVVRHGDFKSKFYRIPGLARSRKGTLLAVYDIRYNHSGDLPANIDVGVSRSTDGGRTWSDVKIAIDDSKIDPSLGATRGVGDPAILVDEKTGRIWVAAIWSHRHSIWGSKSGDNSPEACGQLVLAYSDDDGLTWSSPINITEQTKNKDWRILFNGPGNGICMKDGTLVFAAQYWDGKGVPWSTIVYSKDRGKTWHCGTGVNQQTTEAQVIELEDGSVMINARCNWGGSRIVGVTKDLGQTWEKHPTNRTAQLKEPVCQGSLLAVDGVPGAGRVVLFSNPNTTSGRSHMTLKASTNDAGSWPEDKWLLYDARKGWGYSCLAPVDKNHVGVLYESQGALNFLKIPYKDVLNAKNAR

AmGH181 [2] = biological target: T2, AmGH181; set-up: gene Amuc_1547

Compound	IC50 (AmGH33A) [µM]	IC50 (AmGH181 [1]) [µM]	IC50 (AmGH33B) [µM]	X-ray crystal structure (ternary with DANA) (AmGH181 [2])
CC(=O)N[C@H]1[C@H]([C@H](O)[C@H](O)CO)OC(C(=O)O)=C[C@@H]1O [DANA, N-Acetyl-2,3-dehydro-2-deoxyneuraminic acid]	< 200	< 200	< 200	–
CC(=O)N[C@H]1C(O)O[C@H](CO)[C@H](O)[C@@H]1O[C@@H]1O[C@H](CO)[C@H](O)[C@H](O)[C@H]1O (stereo partly shown) [GNB, Galacto-N-biose]	–	–	–	bound to both the T-antigen disaccharide (GNB) and DANA, which provides a mimic for a transition state-like substrate complex
